Data from US9738634B2, “Heterocyclic amide compound and herbicide” (SYNGENTA PARTICIPATIONS AG, priority 2013, dated 2017).

Assays:
Type in all cases: in vivo
barnyard grass [1] = assay: Test Example 1: weedkilling efficacy, preemergent weed treatment in the submerged state; A: barnyard grass; conditions: treatment dosage 320 g/ha
Summary of the method: (§1)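 Pots of alluvial soil flooded 4 cm deep, sown with barnyard grass, bulrush and oval-leafed pondweed and transplanted with 2.5-leaf rice. Emulsified compound applied to the water surface on sowing day at stated g/ha; greenhouse 25–30 °C, effects assessed 3 weeks after treatment.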

bulrush [2] = assay: Test Example 1: weedkilling efficacy, preemergent weed treatment in the submerged state; B: bulrush; conditions: treatment dosage 320 g/ha
Summary of the method: as §1

oval-leafed pondweed [3] = assay: Test Example 1: weedkilling efficacy, preemergent weed treatment in the submerged state; C: oval-leafed pondweed; conditions: treatment dosage 320 g/ha
Summary of the method: as §1

transplanted rice = assay: Test Example 1: preemergent weed treatment in the submerged state, effect on crop; a: transplanted rice; conditions: treatment dosage 320 g/ha
Summary of the method: as §1

barnyard grass [4] = assay: Test Example 2: weedkilling efficacy, growth period weed treatment in the submerged state; A: barnyard grass; conditions: treatment dosage 320 g/ha
Summary of the method: (§2)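 Barnyard grass, bulrush and oval-leafed pondweed sown in alluvial soil under 4 cm flooding, greenhouse 25 to 30° C. At 1-2 leaf stage, water-diluted emulsion applied to the water surface at stated g/ha dosages; effects scored 3 weeks later.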

bulrush [5] = assay: Test Example 2: weedkilling efficacy, growth period weed treatment in the submerged state; B: bulrush; conditions: treatment dosage 320 g/ha
Summary of the method: as §2

oval-leafed pondweed [6] = assay: Test Example 2: weedkilling efficacy, growth period weed treatment in the submerged state; C: oval-leafed pondweed; conditions: treatment dosage 320 g/ha
Summary of the method: as §2

crabgrass = assay: Test Example 3: weedkilling efficacy through soil treatment; D: crabgrass; conditions: soil treatment, treatment dosage 320 g/ha
Summary of the method: (§3)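 Crop and weed responses were judged three weeks after a uniform surface spray of the water-diluted emulsion at the given g/ha rate. Seeds sat beneath about 1.5 cm of sterilized diluvial soil, and boxes stood in a greenhouse at 25 to 30° C.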

green foxtail = assay: Test Example 3: weedkilling efficacy through soil treatment; E: green foxtail; conditions: soil treatment, treatment dosage 320 g/ha
Summary of the method: as §3

barnyard grass [7] = assay: Test Example 3: weedkilling efficacy through soil treatment; F: barnyard grass; conditions: soil treatment, treatment dosage 320 g/ha
Excerpt: Weedkilling Efficacy Test Through Soil Treatment
Sterilized diluvial soil was introduced into 21 cm long, 13 cm wide, 7 cm deep plastic boxes, and seeds of crabgrass, green foxtail, barnyard grass, wild oat, black-grass, Italian ryegrass, common wind-grass, Indian mallow, redroot pigweed, fig-leafed goosefoot, chickweed, catchweed, birds-eye speedwell, corn, soybean, rice, wheat, beet and rapeseed were each spot-sown, and covered with about 1.5 cm of soil. Next, emulsions of compounds of the present invention prepared according to compounding example 2 were diluted with water to give the specified dosages, and applied uniformly onto the soil surface with a small sprayer. The plants were grown by placing the plastic boxes in a greenhouse at 25 to 30° C., and 3 weeks after the pesticide treatment the effect on each type of plant was investigated on the basis of the assessment criteria of test example 1.
A: barnyard grass, B: bulrush, C: oval-leafed pondweed, D: crabgrass, E: green foxtail, F: barnyard grass, G: wild oat, H: black-grass, I: Italian ryegrass, J: common wind-grass, K: Indian mallow, L: redroot pigweed, M: fig-leafed goosefoot, N: chickweed, O: catchweed, p: birds-eye speedwell, a: transplanted rice, b: directly sown rice, c: corn, d: soybean, e: wheat, f: beet, g: rapeseed
Further, pesticide dosage (g/ha) indicates the concentration regulated such that treatment was with only the stated number of grams (g), when calculated per hectare (ha).

wild oat = assay: Test Example 3: weedkilling efficacy through soil treatment; G: wild oat; conditions: soil treatment, treatment dosage 320 g/ha
Summary of the method: as §3

black-grass = assay: Test Example 3: weedkilling efficacy through soil treatment; H: black-grass; conditions: soil treatment, treatment dosage 320 g/ha
Summary of the method: as §3

Italian ryegrass = assay: Test Example 3: weedkilling efficacy through soil treatment; I: Italian ryegrass; conditions: soil treatment, treatment dosage 320 g/ha
Summary of the method: as §3

common wind-grass = assay: Test Example 3: weedkilling efficacy through soil treatment; J: common wind-grass; conditions: soil treatment, treatment dosage 320 g/ha
Summary of the method: as §3

Indian mallow = assay: Test Example 3: weedkilling efficacy through soil treatment; K: Indian mallow; conditions: soil treatment, treatment dosage 320 g/ha
Summary of the method: as §3

redroot pigweed = assay: Test Example 3: weedkilling efficacy through soil treatment; L: redroot pigweed; conditions: soil treatment, treatment dosage 320 g/ha
Summary of the method: as §3

fig-leafed goosefoot = assay: Test Example 3: weedkilling efficacy through soil treatment; M: fig-leafed goosefoot; conditions: soil treatment, treatment dosage 320 g/ha
Summary of the method: as §3

chickweed = assay: Test Example 3: weedkilling efficacy through soil treatment; N: chickweed; conditions: soil treatment, treatment dosage 320 g/ha
Summary of the method: as §3

birds-eye speedwell = assay: Test Example 3: weedkilling efficacy through soil treatment; p: birds-eye speedwell; conditions: soil treatment, treatment dosage 320 g/ha
Summary of the method: as §3

directly sown rice = assay: Test Example 3: soil treatment, effect on crop; b: directly sown rice; conditions: soil treatment, treatment dosage 320 g/ha
Summary of the method: as §3

corn = assay: Test Example 3: soil treatment, effect on crop; c: corn; conditions: soil treatment, treatment dosage 320 g/ha
Summary of the method: as §3

soybean = assay: Test Example 3: soil treatment, effect on crop; d: soybean; conditions: soil treatment, treatment dosage 320 g/ha
Summary of the method: as §3

wheat = assay: Test Example 3: soil treatment, effect on crop; e: wheat; conditions: soil treatment, treatment dosage 320 g/ha
Summary of the method: as §3

beet = assay: Test Example 3: soil treatment, effect on crop; f: beet; conditions: soil treatment, treatment dosage 320 g/ha
Summary of the method: as §3

rapeseed = assay: Test Example 3: soil treatment, effect on crop; g: rapeseed; conditions: soil treatment, treatment dosage 320 g/ha
Summary of the method: as §3

catchweed = assay: Test Example 3: weedkilling efficacy through soil treatment; O: catchweed; conditions: soil treatment, treatment dosage 320 g/ha
Summary of the method: as §3

SMILES	A: barnyard grass, weed kill grade (barnyard grass [1])	B: bulrush, weed kill grade (bulrush [2])	C: oval-leafed pondweed, weed kill grade (oval-leafed pondweed [3])	a: transplanted rice, effect on crop grade (transplanted rice)	A (barnyard grass) weedkilling efficacy grade (barnyard grass [4])	B (bulrush) weedkilling efficacy grade (bulrush [5])	C (oval-leafed pondweed) weedkilling efficacy grade (oval-leafed pondweed [6])	D: crabgrass, weedkilling efficacy grade (crabgrass)	E: green foxtail, weedkilling efficacy grade (green foxtail)	F: barnyard grass, weedkilling efficacy grade (barnyard grass [7])	G: wild oat, weedkilling efficacy grade (wild oat)	H: black-grass, weedkilling efficacy grade (black-grass)	I: Italian ryegrass, weedkilling efficacy grade (Italian ryegrass)	J: common wind-grass, weedkilling efficacy grade (common wind-grass)	K: Indian mallow, weedkilling efficacy grade (Indian mallow)	L: redroot pigweed, weedkilling efficacy grade (redroot pigweed)	M: fig-leafed goosefoot, weedkilling efficacy grade (fig-leafed goosefoot)	N: chickweed, weedkilling efficacy grade (chickweed)	b: directly sown rice, effect on crop grade (directly sown rice)	c: corn, effect on crop grade (corn)	further results
Cc1cc(Cl)nc(NC(=O)C(C)(C)N2COCN(c3ccccc3)C2=O)c1 [A-2-26]	5 (weed kill ratio 90% or more, (practically complete withering))	5 (weed kill ratio 90% or more, (practically complete withering))	5 (weed kill ratio 90% or more, (practically complete withering))	4 (weed kill ratio 70% or more, less than 90%)	5 (weed kill ratio 90% or more, (practically complete withering))	5 (weed kill ratio 90% or more, (practically complete withering))	5 (weed kill ratio 90% or more, (practically complete withering))	5 (weed kill ratio 90% or more, (practically complete withering))	5 (weed kill ratio 90% or more, (practically complete withering))	5 (weed kill ratio 90% or more, (practically complete withering))	5 (weed kill ratio 90% or more, (practically complete withering))	5 (weed kill ratio 90% or more, (practically complete withering))	5 (weed kill ratio 90% or more, (practically complete withering))	5 (weed kill ratio 90% or more, (practically complete withering))	0 (weed kill ratio 5% or less (practically no effect))	2 (weed kill ratio 20% or more, less than 40%)	4 (weed kill ratio 70% or more, less than 90%)	3 (weed kill ratio 40% or more, less than 70%)	5 (weed kill ratio 90% or more, (practically complete withering))	0 (weed kill ratio 5% or less (practically no effect))	P: birds-eye speedwell, weedkilling efficacy grade (birds-eye speedwell): 5 (weed kill ratio 90% or more, (practically complete withering)); d: soybean, effect on crop grade (soybean): 2 (weed kill ratio 20% or more, less than 40%); e: wheat, effect on crop grade (wheat): 3 (weed kill ratio 40% or more, less than 70%); f: beet, effect on crop grade (beet): 3 (weed kill ratio 40% or more, less than 70%); g: rapeseed, effect on crop grade (rapeseed): 4 (weed kill ratio 70% or more, less than 90%)
CC(C)(C(=O)Nc1cc(OC(F)F)cc(Cl)n1)N1COCN(c2ccccc2)C1=O [A-2-34]	5 (weed kill ratio 90% or more, (practically complete withering))	5 (weed kill ratio 90% or more, (practically complete withering))	5 (weed kill ratio 90% or more, (practically complete withering))	3 (weed kill ratio 40% or more, less than 70%)	5 (weed kill ratio 90% or more, (practically complete withering))	5 (weed kill ratio 90% or more, (practically complete withering))	5 (weed kill ratio 90% or more, (practically complete withering))	5 (weed kill ratio 90% or more, (practically complete withering))	5 (weed kill ratio 90% or more, (practically complete withering))	5 (weed kill ratio 90% or more, (practically complete withering))	5 (weed kill ratio 90% or more, (practically complete withering))	5 (weed kill ratio 90% or more, (practically complete withering))	5 (weed kill ratio 90% or more, (practically complete withering))	5 (weed kill ratio 90% or more, (practically complete withering))	0 (weed kill ratio 5% or less (practically no effect))	0 (weed kill ratio 5% or less (practically no effect))	4 (weed kill ratio 70% or more, less than 90%)	4 (weed kill ratio 70% or more, less than 90%)	4 (weed kill ratio 70% or more, less than 90%)	0 (weed kill ratio 5% or less (practically no effect))	P: birds-eye speedwell, weedkilling efficacy grade (birds-eye speedwell): 4 (weed kill ratio 70% or more, less than 90%); d: soybean, effect on crop grade (soybean): 0 (weed kill ratio 5% or less (practically no effect)); e: wheat, effect on crop grade (wheat): 0 (weed kill ratio 5% or less (practically no effect)); f: beet, effect on crop grade (beet): 4 (weed kill ratio 70% or more, less than 90%); g: rapeseed, effect on crop grade (rapeseed): 1 (weed kill ratio 5% or more, less than 20%)
CC(C)(C(=O)Nc1cc(Cl)cc(Oc2ccccc2)n1)N1COCN(c2ccccc2)C1=O [A-2-35]	5 (weed kill ratio 90% or more, (practically complete withering))	5 (weed kill ratio 90% or more, (practically complete withering))	5 (weed kill ratio 90% or more, (practically complete withering))	1 (weed kill ratio 5% or more, less than 20%)	4 (weed kill ratio 70% or more, less than 90%)	4 (weed kill ratio 70% or more, less than 90%)	4 (weed kill ratio 70% or more, less than 90%)	4 (weed kill ratio 70% or more, less than 90%)	3 (weed kill ratio 40% or more, less than 70%)	3 (weed kill ratio 40% or more, less than 70%)	0 (weed kill ratio 5% or less (practically no effect))	3 (weed kill ratio 40% or more, less than 70%)	3 (weed kill ratio 40% or more, less than 70%)	4 (weed kill ratio 70% or more, less than 90%)	0 (weed kill ratio 5% or less (practically no effect))	0 (weed kill ratio 5% or less (practically no effect))	0 (weed kill ratio 5% or less (practically no effect))	0 (weed kill ratio 5% or less (practically no effect))	0 (weed kill ratio 5% or less (practically no effect))	0 (weed kill ratio 5% or less (practically no effect))	O: catchweed, weedkilling efficacy grade (catchweed): 0 (weed kill ratio 5% or less (practically no effect)); d: soybean, effect on crop grade (soybean): 0 (weed kill ratio 5% or less (practically no effect)); e: wheat, effect on crop grade (wheat): 0 (weed kill ratio 5% or less (practically no effect)); f: beet, effect on crop grade (beet): 0 (weed kill ratio 5% or less (practically no effect)); g: rapeseed, effect on crop grade (rapeseed): 1 (weed kill ratio 5% or more, less than 20%)
